Patent US20070128217A1 (priority 2003, published 2007)

Legend:
[1] = system: antibodies in sera from SARS patients (sera 1a, 1b, 2, 6, 37, 62, London, SARS-yellow, SARS-green); format: binding, human; parameters: Binding of serum 6 to linear peptides of protein X1 of SARS-CoV Urbani / Binding of serum 37 to linear peptides of protein X1 of SARS-CoV Urbani / Binding of serum 6 to looped/cyclic peptide (PEPSCAN-ELISA) / Binding of serum 37 to looped/cyclic peptide (PEPSCAN-ELISA) / Binding of serum 37 to looped/cyclic peptides of protein X1 of SARS-CoV Urbani / Binding of serum 6 to linear peptides of protein X2 / Binding of serum 37 to linear peptides of protein X2 / Binding of serum 37 to looped/cyclic peptides of protein X2 of SARS-CoV Urbani / Binding of serum 6 to linear peptides of protein M of SARS-CoV Urbani / Binding of serum 37 to linear peptides of protein M of SARS-CoV Urbani / Binding of serum 6 to looped/cyclic peptides of protein M of SARS-CoV Urbani / Binding of serum 37 to looped/cyclic peptides of protein M of SARS-CoV Urbani / Binding of serum 6 to linear peptides of protein X3 of SARS-CoV Urbani / Binding of serum 37 to linear peptides of protein X3 of SARS-CoV Urbani / Binding of serum 37 to looped/cyclic peptides of protein X3 of SARS-CoV Urbani / Binding of serum 6 to linear peptides of protein X4 of SARS-CoV Urbani / Binding of serum 37 to linear peptides of protein X4 of SARS-CoV Urbani / Binding of serum 37 to looped/cyclic peptides of protein X4 of SARS-CoV Urbani / Binding of serum 6 to linear peptides of protein X5 of SARS-CoV Urbani / Binding of serum 37 to linear peptides of protein X5 of SARS-CoV Urbani / Binding of serum 37 to looped/cyclic peptides of protein X5 of SARS-CoV Urbani / Binding of serum 6 to linear peptides of protein N of SARS-CoV Urbani / Binding of serum 37 to linear peptides of protein N of SARS-CoV Urbani / Binding of serum 6 to linear peptide (PEPSCAN-ELISA) / Binding of serum 1a to looped/cyclic peptides of protein N of SARS-CoV Urbani / Binding of serum 1b to looped/cyclic peptides of protein N of SARS-CoV Urbani / Binding of serum 2 to looped/cyclic peptides of protein N of SARS-CoV Urbani / Binding of serum 6 to looped/cyclic peptides of protein N of SARS-CoV Urbani / Binding of serum 37 to looped/cyclic peptides of protein N of SARS-CoV Urbani / Binding of serum 62 to looped/cyclic peptides of protein N of SARS-CoV Urbani / Binding of serum London to looped/cyclic peptides of protein N of SARS-CoV Urbani / Binding of serum SARS-green to looped/cyclic peptides of protein N of SARS-CoV Urbani: unit not given here
[2] = system: control sera (pooled serum of ten healthy LUMC hospital workers; commercial negative donor pooled serum from the Dutch bloodbank); format: binding, human; parameters: Binding of Control serum LUMC to linear peptides / Binding of Control serum Blood-bank to linear peptides / Binding of Control serum LUMC to looped peptides / Binding of Control Serum Blood-Bank to Looped peptides / Binding of Control serum LUMC to linear peptides of the protein M of SARS-CoV Urbani / Binding of Control serum Blood-bank to linear peptides of the protein M of SARS-CoV Urbani / Binding of Control serum LUMC to looped peptides of the protein M of SARS-CoV Urbani / Binding of Control Serum Blood-Bank to Looped peptides of the protein M of SARS-CoV Urbani: unit not given here
[3] = system: rabbit serum obtained by immunizing a rabbit with the SARS-CoV strain Frankfurt 1; format: binding; parameters: Binding of a rabbit serum to linear peptides / Binding of a rabbit serum to looped peptides / Rabbit serum linear peptides / Rabbit serum looped peptides / Binding of a rabbit serum to linear peptides of protein N of SARS-CoV Urbani (Rabbit serum linear peptides) / Binding of a rabbit serum to looped/cyclic peptides of protein N of SARS-CoV Urbani (Rabbit serum looped peptides): unit not given here
[4] = system: recombinant human anti-SARS-CoV antibody 03-018; format: binding; parameters: Binding of antibody 03-018 to linear peptides of the N protein of SARS-CoV Urbani / Binding of antibody 03-018 to looped/cyclic peptides of the N protein of SARS-CoV Urbani: unit not given here

Sequence | Binding of serum 1a to linear peptides of protein N of SARS-CoV Urbani [1] | Binding of serum 1a to looped/cyclic peptides of protein N of SARS-CoV Urbani [1] | Binding of serum 1b to linear peptides of protein N of SARS-CoV Urbani [1] | Binding of serum 1b to looped/cyclic peptides of protein N of SARS-CoV Urbani [1] | Binding of serum 2 to linear peptides of protein N of SARS-CoV Urbani [1] | Binding of serum 2 to looped/cyclic peptides of protein N of SARS-CoV Urbani [1] | Binding of serum 6 to linear peptides of protein N of SARS-CoV Urbani [1] | Binding of serum 6 to looped/cyclic peptides of protein N of SARS-CoV Urbani [1] | Binding of serum 37 to linear peptides of protein N of SARS-CoV Urbani [1] | Binding of serum 37 to looped/cyclic peptides of protein N of SARS-CoV Urbani [1] | Binding of serum 62 to linear peptides of protein N of SARS-CoV Urbani [1] | Binding of serum 62 to looped/cyclic peptides of protein N of SARS-CoV Urbani [1] | Binding of serum London to linear peptides of protein N of SARS-CoV Urbani [1] | Binding of serum London to looped/cyclic peptides of protein N of SARS-CoV Urbani [1] | Binding of serum SARS-green to looped/cyclic peptides of protein N of SARS-CoV Urbani [1] | Binding of serum SARS-yellow to looped/cyclic peptides of protein N of SARS-CoV Urbani [1] | Binding of a rabbit serum to linear peptides of protein N of SARS-CoV Urbani (Rabbit serum linear peptides) [3] | Binding of a rabbit serum to looped/cyclic peptides of protein N of SARS-CoV Urbani (Rabbit serum looped peptides) [3] | Binding of antibody 03-018 to linear peptides of the N protein of SARS-CoV Urbani [4] | Binding of antibody 03-018 to looped/cyclic peptides of the N protein of SARS-CoV Urbani [4] | other results
NKHIDAYKTFPPTEP | 0.2 | 0.3 | 0.1 | 0.1 | 0.1 | 0.2 | 0.2 | 0.1 | 0.6 | 0.4 | 0.5 | 0.3 | 0.5 | 0.3 | 0.3 | 0.2 | 0.0 | 0.3 | 0.1 | 0.2 | Binding of serum SARS-green to linear peptides of protein N of SARS-CoV Urbani [1]: 0.3; Binding of serum SARS-yellow to linear peptides of protein N of SARS-CoV Urbani [1]: 0.6; Control Serum Blood-Bank Looped peptides [2]: 0.5; Control serum Blood-bank linear peptides [2]: 0.6; Control serum LUMC linear peptides [2]: 0.5; Control serum LUMC looped peptides [2]: 0.4
NQLESKVSGKGQQQQ |  | 0.4 |  | 0.2 |  | 0.5 |  | 0.3 |  | 0.6 |  | 0.5 |  | 0.5 | 0.3 | 0.6 | 0.2 | 0.5 | 0.1 | 0.3 | Binding of serum 1a to linear peptide (PEPSCAN-ELISA) [1]: 0.3; Binding of serum 1b to linear peptide (PEPSCAN-ELISA) [1]: 0.2; Binding of serum 2 to linear peptide (PEPSCAN-ELISA) [1]: 0.3; Binding of serum 6 to linear peptide (PEPSCAN-ELISA) [1]: 0.2; Binding of serum 37 to linear peptide (PEPSCAN-ELISA) [1]: 0.7; Binding of serum 62 to linear peptide (PEPSCAN-ELISA) [1]: 0.8; Binding of serum London to linear peptide (PEPSCAN-ELISA) [1]: 0.6; Binding of serum SARS-green to linear peptide (PEPSCAN-ELISA) [1]: 0.5; Binding of serum SARS-yellow to linear peptide (PEPSCAN-ELISA) [1]: 0.7; Binding of Control Serum Blood-Bank to Looped peptides [2]: 0.7; Binding of Control serum Blood-bank to linear peptides [2]: 0.8; Binding of Control serum LUMC to linear peptides [2]: 0.9; Binding of Control serum LUMC to looped peptides [2]: 0.7
NQNGGRNGARPKQRR | 0.2 | 0.2 | 0.1 | 0.1 | 0.3 | 0.2 | 0.3 | 0.2 | 0.8 | 0.4 | 0.7 | 0.3 | 0.5 | 0.3 | 0.2 | 0.3 | 0.5 | 1.1 | 0.2 | 0.2 | Binding of serum SARS-green to linear peptides of protein N of SARS-CoV Urbani [1]: 0.5; Binding of serum SARS-yellow to linear peptides of protein N of SARS-CoV Urbani [1]: 0.6; Binding of Control Serum Blood-Bank to Looped peptides [2]: 0.6; Binding of Control serum Blood-bank to linear peptides [2]: 0.7; Binding of Control serum LUMC to linear peptides [2]: 0.8; Binding of Control serum LUMC to looped peptides [2]: 0.5
